How the values were obtained:
NCI-H460 cells = assay: Cell growth test (MTT), NCI-H460; type: cell-based; conditions: Homo sapiens; NCI-H460, MTT test after 48 h; read-out: IC50 (concentration necessary to inhibit 50% of cell growth)
Protocol: (§1) The cell growth tests are carried out in transparent 96-well microplates (Greiner) after having seeded 100 μl/well of a cell solution having 2·10^5 cells/ml to 5·10^5 cells/ml (depending on the cell lines). After incubating for 24 h at 37° C. with 5% CO2, the culture medium is removed and replaced with solutions of the molecule to be tested at various concentrations. The cells are incubated with these molecules for an additional 48 h at 37° C. with 5% CO2. After elimination of the medium, the cells are washed with blank RPMI (Gibco, Invitrogen) then incubated with 3-(4,5-dimethylthiazol-2-yl)-2,5-diphenyltetrazolium bromide or MTT (0.5 mg/ml final concentration) for 4 h at 37° C. with 5% CO2. MTT (Sigma Aldrich) makes it possible to estimate the viability of the cells by measuring the activity of a mitochondrial enzyme. Indeed, in living cells, mitochondrial dehydrogenases are capable of cleaving the tetrazolium ring, thus leading to the formation of formazan crystals that are insoluble in an aqueous medium. These crystals are dissolved with the addition of a solubilizing solution (isopropanol, 10% Triton X100, 0.1 N HCl). After stirring, the absorbance is measured at 570 nm using the FLUOstar OPTIMA microplate reader. […]
(§2) The viability of the cells was evaluated using an MTT test after 48 h of exposure with various concentrations of molecules (from 100 μM to 0.001 μM). […]

MCF-7 cells = assay: Cell growth test (MTT), MCF-7; type: cell-based; conditions: Homo sapiens, MCF7; MCF-7, MTT test after 48 h; read-out: IC50 (concentration necessary to inhibit 50% of cell growth)
Protocol: as §1, §2

recombinant human LIMK1 = biological target: T1, recombinant human LIMK1 (Homo sapiens, UniProt P53667); assay: LIMK1 inhibition reversibility assay (size-exclusion chromatography); type: biochemical; conditions: 2 μM compound, input vs flow-through after size-exclusion chromatography
T1 construct: 6His (N); purchased Millipore 14-656
Protocol: N-terminal 6H s-tagged recombinant human LIMK1 (Millipore #14-656, 62.5 ng) was incubated with […] Compound 1 (or equivalent amount of DMSO) for 10 minutes at 4° C. in a final volume of 100 μL. Size-exclusion chromatography of this mixture was then performed using 1 ml Biospin P-6 column (Biorad, equilibrated in 20 mM MOPS pH=7.0, 1 mM EDTA, 0.01% NP-40, 5% glycerol, 0.1% β-mercaptoethanol, 1 mg·ml^−1 Bovine Serum Albumin). LIMK1 kinase activity in input and flow-through were then assayed by radiometric LIMK1 kinase assay.
LIMK1 inhibition reversibility was assayed in vitro, in the conditions of Example 2, in the presence of 2 μM Compound 1 (H06), prior (‘input’) or after size-exclusion chromatography (‘flow-through’). Error bars represent standard error mean.

[1] = test system: microtubules of HeLa cells; assay: Stability of microtubules at low temperature (4° C.); type: cell-based, Human; conditions: 2 h with compound then 30 minutes at 4° C.
Protocol: FIG. 3 represents the effect of the Compound 1 of the invention on the stability of microtubules at low temperature. The HeLa cells are incubated with paclitaxel or without, with the Compound 1 of the invention, for 2 h, then exposed for 30 minutes at 4° C. The amount of tubulin in the cells treated with the Compound 1 of the invention is measured with a microplate reader, then reported as a percentage of the amount of tubulin measured in the wells containing the cells treated with paclitaxel (100%);
In the living cell, microtubules are dynamic structures, which oscillate between assembling and disassembling phases. Various types of tests may be carried out in order to assess the stabilizing effect of the molecules on the microtubule network. Thus, the binding of paclitaxel to the microtubules, or the binding of stabilizing proteins such as STOP proteins (Bosc et al., 2003) may protect the microtubule network from a depolymerization induced by an incubation of the cells at 4° C. Furthermore, molecules capable of slowing down the dynamics of the microtubules may be identified by analyzing the resistance of cell microtubules to a depolymerization induced by nocodazole. In the absence of a stabilizing compound, the microtubules depolymerize in the presence of nocodazole (FIG. 2). […]

[2] = test system: mitochondria of HeLa cells; assay: Effect on location and morphology of the mitochondria (MitoTracker staining); type: cell-based, Human; conditions: 2 h of treatment at 25 μM
Protocol: As for tubulin staining, the cells are grown on glass coverslips and incubated at 37° C. with 5% CO2. Three days after seeding, MitoTracker® Red CMXRos (Molecular Probes, Invitrogen) is added to the culture medium in order to reach a final concentration of 250 nM. The cells are then incubated for 30 minutes at 37° C. with 5% CO2. This marker passively diffuses through the plasma membrane and accumulates into the active mitochondria. After elimination of the medium, the cells are washed with warm medium then fixed by addition of a solution of PBS/3.7% formaldehyde for 30 minutes at 37° C. The cells are rinsed with PBS, then can be permeabilized with a solution of PBS/0.2% Triton X100 for 15 minutes at room temperature if other immunofluorescence staining are needed.

T1 sequence (P53667 whole entry): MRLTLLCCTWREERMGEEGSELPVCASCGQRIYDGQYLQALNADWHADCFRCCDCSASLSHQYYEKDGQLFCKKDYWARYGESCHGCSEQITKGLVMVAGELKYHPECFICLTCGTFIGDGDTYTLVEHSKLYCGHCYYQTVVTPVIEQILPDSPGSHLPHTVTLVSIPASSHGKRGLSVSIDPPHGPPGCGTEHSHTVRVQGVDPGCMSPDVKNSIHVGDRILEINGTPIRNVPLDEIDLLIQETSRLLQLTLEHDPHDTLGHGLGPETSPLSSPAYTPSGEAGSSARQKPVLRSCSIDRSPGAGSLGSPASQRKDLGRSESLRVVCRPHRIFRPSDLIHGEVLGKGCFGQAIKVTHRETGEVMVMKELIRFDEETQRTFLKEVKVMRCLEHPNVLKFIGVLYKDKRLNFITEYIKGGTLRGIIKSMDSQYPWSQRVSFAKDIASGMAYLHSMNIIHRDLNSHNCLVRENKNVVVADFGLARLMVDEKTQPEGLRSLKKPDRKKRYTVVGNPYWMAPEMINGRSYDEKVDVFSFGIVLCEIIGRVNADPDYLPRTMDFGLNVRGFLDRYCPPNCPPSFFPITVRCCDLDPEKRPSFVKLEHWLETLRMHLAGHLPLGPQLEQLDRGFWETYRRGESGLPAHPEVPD

Compound: Cc1c2cc[nH]c(=O)c2c(C)c2c1[nH]c1ccc(OC(=O)c3ccccc3)cc12 [Compound 1, 9-benzoyloxy-5,11-dimethyl-2H,6H-pyrido[4,3-b]carbazol-1-one]
- IC50 (NCI-H460 cells): 6.65 µM
- IC50 (MCF-7 cells): 62.2 µM
- Reversibility of LIMK1 inhibition in vitro (recombinant human LIMK1): reversible
- Protection of microtubules from cold-induced depolymerization [1]: not able to protect the microtubules
- Mitochondrial phenotype of sodium azide type [2]: does not induce the mitochondrial phenotype
